For three compounds, IC50 results are on record in ChEMBL document CHEMBL1126531, “Synthesis of N-Acetylhemiaminal metabolites of opc-21268, vasopressin V1 receptor antagonist” (Bioorg Med Chem Lett, 1993).

In this assay the target is Vasopressin V1 receptor (Homo sapiens, UniProt P37288+P47901). Put plainly: Compound was evaluated for antagonistic activity against vasopressin V1 receptor. The format is functional.
As to `CC(=O)NCCCOc1ccc(C(=O)N2CCC(N3C(=O)CCc4ccccc43)CC2)cc1`, the IC50 (usually the concentration that gives 50% inhibition) was found to be 440 nM. In other words, the sub-micromolar range. Take `CC(=O)NC(O)CCOc1ccc(C(=O)N2CCC(n3c(=O)ccc4ccccc43)CC2)cc1` (stereo not drawn): the IC50 was 3300 nM.

Take `CC(=O)NC(O)CCOc1ccc(C(=O)N2CCC(N3C(=O)CCc4ccccc43)CC2)cc1` (stereo not drawn): the IC50 is 600 nM. This IC50 is about 5.5-fold lower than that of the compound before.
